Values quoted from earlier work, collected in patent US7811790B2, “Polymyxin synthetase and gene cluster thereof” (priority 2005, dated 2010).

Experiments:
[1] = therapeutic use
[2] = water and organic solvent
[3] = system: gram-positive bacteria
[4] = system: fungi
[5] = system: anaerobic bacteria
[6] = system: antibiotics-resistant Klebsiella pneumoniae; conditions: ventriculis caused by antibiotics-resistant Klebsiella pneumoniae
[7] = system: Pseudomonas aeruginosa
[8] = system: Pseudomonas aeruginosa and Acinetobacter baumannii exhibiting resistance against the conventional antibiotics; conditions: intravenously injected, 60 patients
[9] = system: Pseudomonas aeruginosa having resistance against almost all antibiotics; conditions: 3 osteomyelitis patients
[10] = system: Acinetobacter having resistance against antibiotics; conditions: meningitis caused by antibiotic-resistant Acinetobacter

polymyxin
induced toxicity [1]: severe neurotoxicity and hepatotoxicity
side effects [1]: serious side effects such as fever, eruption and pain
solubility [2]: soluble in both water and an organic solvent

polymyxin B
effect on gram-positive bacteria [3]: no effect
effect on fungi [4]: no effect
effect on anaerobic bacteria [5]: no effect
outcome of treatment of ventriculis [6]: successfully treated

polymyxin B sulfate
killed % of Pseudomonas aeruginosa ([7]; at the concentration of 0.01 μg/ml): 88%

polymyxin E
concentration showing lethal effect ([7]; organism not restated in the sentence, follows the Pseudomonas aeruginosa sentence): 0.1 µg/mL
effect on gram-positive bacteria [3]: no effect
effect on fungi [4]: no effect
effect on anaerobic bacteria [5]: no effect
patients improved [8]: 58%
outcome of treatment of osteomyelitis [9]: improved
outcome of treatment of meningitis [10]: successfully treated
